This is an account of results in patent publication US10975068B2, “6-aminopyridin-3-yl thiazoles as modulators of RORγT” (Janssen Pharmaceutica NV, priority 2016, dated 2021).

Like-named read-outs stand apart in the source and are kept apart here.

One assay addresses full-length human RORγt (Homo sapiens (Human), UniProt P51449). The assay is described as follows: RORγt (full-length human) reporter assay, Conditions B or C. Format: cell-based. The following applies: for inhibition at 3 µM: at 3 μM compound concentration; for IC50: read-out: RORγt (FL) Reporter Assay B or C, IC50; for RORγt (FL) Reporter Assay B or C, % inhibition (value marked *): marked *: footnote not given. In outline:
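Readout is dual luciferase: firefly (GAL4-driven) normalized to DMSO-only and saturating-reference controls, then to CMV-Renilla. Full-length human RORγt fused to GAL4-DBD was transiently expressed in HEK293T; compound exposure ran overnight (16-20 h) starting 4-6 h after transfection, final FBS 1.3%, DMSO 0.1%.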
In general terms: Reporter assays use an easily measured gene product as a stand-in for the process of interest.

Assay [1] concerns the target human RORγt ligand binding domain (RORγt LBD) (Homo sapiens (Human), UniProt P51449). The assay is described as follows: RORγt ThermoFluor® assay (thermal shift binding). The settings on record: read-out: ThermoFluor® Assay, Kd. In outline: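 Binding was inferred from thermal stabilisation (ΔTm) of the E. coli-expressed RORγt LBD (0.065 mg/mL), monitored by 1,8-ANS (60 μM) emission at 500 nm during a 1 °C/min ramp. Buffer was Hepes 100 mM pH 7.0 with NaCl, GSH and Tween-20.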
On the technique in general: In DSF a fluorescence change marks the thermal transition of the protein.

The mark [2] stands for this setting: read-out: RORγt (FL) Reporter Assay B or C, % inhibition.

Sequence of full-length human RORγt (P51449 other isoform, or with tags, fused parts or gaps): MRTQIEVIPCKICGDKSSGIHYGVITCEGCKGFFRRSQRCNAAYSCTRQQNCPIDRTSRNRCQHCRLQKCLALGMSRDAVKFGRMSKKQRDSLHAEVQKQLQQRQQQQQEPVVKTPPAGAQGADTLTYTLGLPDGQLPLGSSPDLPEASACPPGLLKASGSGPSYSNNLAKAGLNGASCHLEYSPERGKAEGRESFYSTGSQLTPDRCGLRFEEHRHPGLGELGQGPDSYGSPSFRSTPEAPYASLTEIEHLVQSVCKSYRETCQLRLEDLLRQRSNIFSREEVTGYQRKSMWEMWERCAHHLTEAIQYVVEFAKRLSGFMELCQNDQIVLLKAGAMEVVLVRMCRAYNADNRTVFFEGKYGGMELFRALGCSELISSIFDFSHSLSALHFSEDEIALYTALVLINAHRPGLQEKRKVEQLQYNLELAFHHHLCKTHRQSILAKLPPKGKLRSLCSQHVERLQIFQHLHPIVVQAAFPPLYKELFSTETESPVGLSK
Sequence of human RORγt ligand binding domain (RORγt LBD) (P51449 other isoform, or with tags, fused parts or gaps): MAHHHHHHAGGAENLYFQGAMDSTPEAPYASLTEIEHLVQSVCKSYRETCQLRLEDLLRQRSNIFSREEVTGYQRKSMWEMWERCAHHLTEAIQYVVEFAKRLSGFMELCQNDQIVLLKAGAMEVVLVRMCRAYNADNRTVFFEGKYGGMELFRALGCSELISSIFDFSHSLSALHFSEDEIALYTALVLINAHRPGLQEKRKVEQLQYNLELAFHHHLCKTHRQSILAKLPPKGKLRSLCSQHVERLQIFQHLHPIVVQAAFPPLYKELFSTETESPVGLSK

As for `C[C@H]1CCCN1C(=O)c1nc(C(=O)NC(C)(C)CO)sc1-c1cnc(NC(C)(C)C)cc1C(F)(F)F` [Example 339, 5-[6-(tert-Butylamino)-4-(trifluoromethyl)-3-pyridyl]-N-(2-hydroxy-1,1-dimethyl-ethyl)-4-[(2S)-2-methylpyrrolidine-1-carbonyl]thiazole-2-carboxamide], the inhibition – broadly, the drop in the measured response relative to a control, in per cent – at 3 µM on full-length human RORγt (setting [2]) was determined as 109%. At full-length human RORγt, the IC50 – broadly, the concentration that gives 50% inhibition – was 2.9 nM. Also, the Kd (usually the concentration at which binding is half-saturated) in assay [1] came out at 0.97 nM.

With `C[C@H](NC(=O)c1nc(C(=O)N2C3CCC2CC3)c(-c2cnc(NC3(C)CCC3)cc2C(F)F)s1)C(C)(C)O` [Example 189], at full-length human RORγt (Conditions B or C), the “RORγt (FL) Reporter Assay B or C, % inhibition (value marked *)” value is 101* % and the 50% inhibitory concentration (IC50) was determined as 98 nM. The Kd in assay [1] came out at 3.6 nM.

In the case of `CC[C@@H](Nc1cc(C(F)F)c(-c2sc(C(=O)N[C@H](C)CO)nc2C(=O)N2CCC[C@@H]2C)cn1)C(F)(F)F` [Example 206, 5-(4-(Difluoromethyl)-6-(((1R)-1-(trifluoromethyl)propyl)amino)-3-pyridyl)-N-((1R)-2-hydroxy-1-methyl-ethyl)-4-((2S)-2-methylpyrrolidine-1-carbonyl)thiazole-2-carboxamide], the “RORγt (FL) Reporter Assay B or C, % inhibition (value marked ***)” value on full-length human RORγt (Conditions B or C, marked ***: footnote not given) was 106*** %. Besides, the IC50 on full-length human RORγt (Conditions B or C) turned out to be 35 nM. In addition, in assay [1], the Kd was 3.2 nM.

Consider `C[C@H]1CCCN1C(=O)c1nc(C(=O)NCC(C)(C)O)sc1-c1cnc(NC2(C)CCC2)cc1C(F)(F)F` [Example 77, (S)—N-(2-Hydroxy-2-methylpropyl)-5-(6-((1-methylcyclobutyl)amino)-4-(trifluoromethyl)pyridin-3-yl)-4-(2-methylpyrrolidine-1-carbonyl)thiazole-2-carboxamide], for which, at full-length human RORγt (Conditions B or C), the “RORγt (FL) Reporter Assay B or C, % inhibition (value marked *)” value is 108* % and the IC50 was 17 nM. Further, the Kd in assay [1] was 1.3 nM.

For `C[C@H]1CCCN1C(=O)c1nc(C(=O)N[C@@H]2COC[C@H]2O)sc1-c1cnc(NC(C)(C)C)cc1C(F)F` [Example 402, 5-[6-(tert-Butylamino)-4-(difluoromethyl)-3-pyridyl]-N-[(3R,4S)-4-hydroxytetrahydrofuran-3-yl]-4-[(2S)-2-methylpyrrolidine-1-carbonyl]thiazole-2-carboxamide], the inhibition at 3 µM on full-length human RORγt (setting [2]) was 99%. In addition, on full-length human RORγt, the IC50 was determined as 37 nM. Moreover, in assay [1], the equilibrium dissociation constant (Kd) was determined as 5.8 nM.

As for `CC(Nc1cc(C(F)(F)F)c(-c2sc(C(=O)NCC(C)(C)O)nc2C(=O)N2CCCC[C@@H]2C)cn1)C(F)(F)F` (stereo partly drawn) [Example 33, N-(2-Hydroxy-2-methylpropyl)-4-((S)-2-methylpiperidine-1-carbonyl)-5-(4-(trifluoromethyl)-6-((1,1,1-trifluoropropan-2-yl)amino)pyridin-3-yl)thiazole-2-carboxamide], the IC50 at full-length human RORγt (Conditions B or C) is 5.2 nM. Further, the inhibition at 6 µM at full-length human RORγt (read-out: RORγt (FL) Reporter Assay B or C, % inhibition @ 6 μM, Conditions B or C, @ 6 μM) worked out at 109%. Besides, the Kd in assay [1] amounted to 0.43 nM.

Consider `CC[C@H](Nc1cc(C(F)F)c(-c2sc(C(=O)NC3CCC3O)nc2C(=O)N2CCC[C@@H]2C)cn1)C(F)(F)F` (stereo partly drawn) [Example 375, 5-(4-(Difluoromethyl)-6-(((S)-1,1,1-trifluorobutan-2-yl)amino)pyridin-3-yl)-N-(trans-2-hydroxycyclobutyl)-4-((S)-2-methylpyrrolidine-1-carbonyl)thiazole-2-carboxamide], for which, on full-length human RORγt (setting [2]), the inhibition at 3 µM was 105%. The IC50 at full-length human RORγt worked out at 29 nM. The Kd in assay [1] was 5.7 nM.

As to `C[C@H]1CCCN1C(=O)c1nc(C(=O)N[C@H]2COC[C@@H]2O)sc1-c1cnc(NC(C)(C)C)cc1C(F)F` [Example 401, 5-[6-(tert-Butylamino)-4-(difluoromethyl)-3-pyridyl]-N-[(3S,4R)-4-hydroxytetrahydrofuran-3-yl]-4-[(2S)-2-methylpyrrolidine-1-carbonyl]thiazole-2-carboxamide], on full-length human RORγt (at 1 μM compound concentration, read-out: RORγt (FL) Reporter Assay B or C, % inhibition), the inhibition at 1 µM turned out to be 102%. For the same compound, the IC50 at full-length human RORγt stood at 38 nM. In addition, the Kd in assay [1] turned out to be 4.3 nM.
